Results taken from patent US4278675A, “Bronchodilating process” (Bristol-Myers Company, priority 1979, dated 1981).
≈ marks a conversion by molar mass, not a printed value. Where two headings read alike, the source gives them in different places.

Key:
[1] = system: intratracheal pressure (ITP) in the guinea pig; experiment: In vivo bronchodilator activity: decrease in intratracheal pressure (ITP) in anesthetized guinea pig; settings: Cavia porcellus, intravenous, read-out: ITP ED50 (dose resulting in a 50% decrease in intratracheal pressure)
Experimental: (§1) The trachea of anesthetized guinea pig was cannulated and the ITP recorded on a polygraph under artificial ventilation. Arterial blood pressure (ABP; reflecting hypotensive activity) was also measured during the experiment. Either intravenous or intraduodenal routes of administration are used. […] The ratio of hypotensive ED20 /bronchodilating ED50 reflects an assessment of the separation of desirable bronchodilator activity from undesirable cardiovascular (hypotensive) effect in the compounds. The larger the ABP/ITP ratio, the greater separation of bronchodilator activity and hypotensive side effect.

[2] = system: Arterial blood pressure (ABP); experiment: In vivo hypotensive activity: arterial blood pressure (ABP) in anesthetized guinea pig; settings: intravenous; for ABP ED20 (dose which reduces arterial blood pressure by 20%): anesthetized guinea pig, hypotensive activity; for Ratio ABP/ITP (hypotensive ED20/bronchodilating ED50): guinea pig, larger ratio = greater separation of bronchodilator activity and hypotensive side effect
Experimental: as §1

[3] = system: Tracheal chains of guinea pig; experiment: In vitro bronchodilator activity, tracheal chains of guinea pig (Magnus method); assay type: cell-based; settings: Cavia porcellus, relative to 0.1 mcg./ml. isoproterenol, read-out: EC50 (concentration producing a relaxation which is 50% of the maximum response to 0.1 mcg./ml. of isoproterenol)
Experimental: Tracheal chains of guinea pig were prepared by the method of A. Akcasu, Arch. Int. Pharmcodyn. […] The response to each test compound was recorded by the Magnus method and expressed as a percentage of the maximum response obtained with 0.1 mcg./ml. of isoproterenol prior to each experiment.

[4] = prior art (U.S. Pat. No. 3,930,005), cited from earlier work

Row | EC50 [3] [µg/mL] | SMILES | ED50 [1] [mg/kg] | ABP ED20 (dose which reduces arterial blood pressure by 20%) [2] [mg/kg] | Ratio ABP/ITP (hypotensive ED20/bronchodilating ED50) [2] | anti-inflammatory activity ([4]; listed as 9-cyclohexyl-9H-adenine) | anti-inflammatory activity ([4]; listed as drawing 2)
1 | 0.34 (≈ 1.2 µM) | CCCOc1nc(N)c2ncn(Cc3ccccc3)c2n1 [9-Benzyl-2-n-propoxy-9H-adenine] | 0.83 | 1.7 | 2.0 | – | –
2 | 0.91 (≈ 4.19 µM) | Nc1ncnc2c1ncn2C1CCCCC1 [9-Cyclohexyl-9H-adenine, 9-cyclohexyl-9H-adenine] | 0.24 | > 3 | > 1.2 | no activity or activity of no practical value | relatively inactive
3 | – | Cn1c(=O)c2[nH]cnc2n(C)c1=O [Aminophylline, reference compound] | – | 1.4 | – | – | –
